# Test results as given in the kinase profiling compilation of Christmann-Franck et al. (2016).
# Key:
# Assay in all cases: KINOMEscan competition binding
# Conditions in all cases: compound 10.0 µM
# [1] = target: CSNK1E (human) (UniProt P49674)
# [2] = target: SIK3 (human) (UniProt Q9Y2K2)
# [3] = target: CDK13 (human) (UniProt Q14004)
# [4] = target: CAMK1G (human) (UniProt Q96NX5)
# [5] = target: SRPK2 (human) (UniProt P78362)
# [6] = target: CASK (human) (UniProt O14936)
# [7] = target: EPHB3 (human) (UniProt P54753)
# [8] = target: DYRK1B (human) (UniProt Q9Y463)
# [9] = target: AKT1 (human) (UniProt P31749)
# [10] = target: AAK1 (human) (UniProt Q2M2I8)
# [11] = target: PTK2 (human) (UniProt Q05397)
# [12] = target: TEK (human) (UniProt Q02763)
# [13] = target: NTRK1 (human) (UniProt P04629)
# [14] = target: PDGFRB (human) (UniProt P09619)
# [15] = target: SRPK3 (human) (UniProt Q9UPE1)
# [16] = target: BLK (human) (UniProt P51451)
# [17] = target: MARK2 (human) (UniProt Q7KZI7)
# [18] = target: PIP4K2C (human) (UniProt Q8TBX8)
# [19] = target: TYK2 JH2 pseudokinase (human) (UniProt P29597)
# [20] = target: TSSK1B (human) (UniProt Q9BXA7)
# [21] = target: AURKB (human) (UniProt Q96GD4)
# [22] = target: MAP4K1 (human) (UniProt Q92918)
# [23] = target: NEK3 (human) (UniProt P51956)
# [24] = target: ERBB3 (human) (UniProt P21860)
# [25] = target: CLK2 (human) (UniProt P49760)
# [26] = target: ACVR2A (human) (UniProt P27037)
# [27] = target: MYO3B (human) (UniProt Q8WXR4)
# [28] = target: RIOK2 (human) (UniProt Q9BVS4)
# [29] = target: SNRK (human) (UniProt Q9NRH2)
# [30] = target: PTK6 (human) (UniProt Q13882)
# [31] = target: YSK4 (human) (UniProt Q56UN5)
# [32] = target: EPHA7 (human) (UniProt Q15375)
# [33] = target: EPHA4 (human) (UniProt P54764)
# [34] = target: MAP4K2 (human) (UniProt Q12851)
# [35] = target: ABL2 (human) (UniProt P42684)
# [36] = target: FYN (human) (UniProt P06241)
# [37] = target: DSTYK (human) (UniProt Q6XUX3)
# [38] = target: NTRK3 (human) (UniProt Q16288)
# [39] = target: DMPK (human) (UniProt Q09013)
# [40] = target: MAP2K2 (human) (UniProt P36507)
# Sequence of TYK2 JH2 pseudokinase (human) (P29597 whole entry, looked up): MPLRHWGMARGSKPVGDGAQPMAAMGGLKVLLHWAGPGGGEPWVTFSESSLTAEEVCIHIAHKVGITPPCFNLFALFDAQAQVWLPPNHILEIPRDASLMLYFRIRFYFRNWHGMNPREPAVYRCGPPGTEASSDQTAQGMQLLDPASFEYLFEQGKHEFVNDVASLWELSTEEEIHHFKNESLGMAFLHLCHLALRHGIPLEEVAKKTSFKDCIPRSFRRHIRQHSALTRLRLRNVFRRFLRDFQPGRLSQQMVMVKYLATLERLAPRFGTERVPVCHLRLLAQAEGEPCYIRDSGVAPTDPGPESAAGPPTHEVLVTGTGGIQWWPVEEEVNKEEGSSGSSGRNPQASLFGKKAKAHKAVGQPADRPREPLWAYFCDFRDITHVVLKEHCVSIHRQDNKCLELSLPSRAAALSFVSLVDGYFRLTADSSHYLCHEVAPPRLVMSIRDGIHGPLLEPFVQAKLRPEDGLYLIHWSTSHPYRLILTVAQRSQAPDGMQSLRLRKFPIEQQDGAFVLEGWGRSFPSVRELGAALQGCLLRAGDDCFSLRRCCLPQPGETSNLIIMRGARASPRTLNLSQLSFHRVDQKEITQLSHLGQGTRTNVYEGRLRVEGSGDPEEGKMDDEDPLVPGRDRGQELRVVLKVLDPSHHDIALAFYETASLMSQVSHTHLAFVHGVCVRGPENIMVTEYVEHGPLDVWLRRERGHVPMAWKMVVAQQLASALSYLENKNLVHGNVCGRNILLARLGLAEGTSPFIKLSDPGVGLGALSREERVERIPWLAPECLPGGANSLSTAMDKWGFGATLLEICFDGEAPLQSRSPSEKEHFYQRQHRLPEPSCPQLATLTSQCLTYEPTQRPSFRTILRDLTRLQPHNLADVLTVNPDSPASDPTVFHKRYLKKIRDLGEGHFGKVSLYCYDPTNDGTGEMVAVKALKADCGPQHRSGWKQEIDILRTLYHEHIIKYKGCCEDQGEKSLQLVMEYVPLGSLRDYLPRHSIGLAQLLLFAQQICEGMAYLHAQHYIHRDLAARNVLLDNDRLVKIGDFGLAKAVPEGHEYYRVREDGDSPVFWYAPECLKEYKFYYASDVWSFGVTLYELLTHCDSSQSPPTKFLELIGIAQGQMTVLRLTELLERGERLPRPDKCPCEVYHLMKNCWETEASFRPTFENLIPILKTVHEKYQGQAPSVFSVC
# Sequence of MAP4K2 (human) (Q12851 whole entry, looked up): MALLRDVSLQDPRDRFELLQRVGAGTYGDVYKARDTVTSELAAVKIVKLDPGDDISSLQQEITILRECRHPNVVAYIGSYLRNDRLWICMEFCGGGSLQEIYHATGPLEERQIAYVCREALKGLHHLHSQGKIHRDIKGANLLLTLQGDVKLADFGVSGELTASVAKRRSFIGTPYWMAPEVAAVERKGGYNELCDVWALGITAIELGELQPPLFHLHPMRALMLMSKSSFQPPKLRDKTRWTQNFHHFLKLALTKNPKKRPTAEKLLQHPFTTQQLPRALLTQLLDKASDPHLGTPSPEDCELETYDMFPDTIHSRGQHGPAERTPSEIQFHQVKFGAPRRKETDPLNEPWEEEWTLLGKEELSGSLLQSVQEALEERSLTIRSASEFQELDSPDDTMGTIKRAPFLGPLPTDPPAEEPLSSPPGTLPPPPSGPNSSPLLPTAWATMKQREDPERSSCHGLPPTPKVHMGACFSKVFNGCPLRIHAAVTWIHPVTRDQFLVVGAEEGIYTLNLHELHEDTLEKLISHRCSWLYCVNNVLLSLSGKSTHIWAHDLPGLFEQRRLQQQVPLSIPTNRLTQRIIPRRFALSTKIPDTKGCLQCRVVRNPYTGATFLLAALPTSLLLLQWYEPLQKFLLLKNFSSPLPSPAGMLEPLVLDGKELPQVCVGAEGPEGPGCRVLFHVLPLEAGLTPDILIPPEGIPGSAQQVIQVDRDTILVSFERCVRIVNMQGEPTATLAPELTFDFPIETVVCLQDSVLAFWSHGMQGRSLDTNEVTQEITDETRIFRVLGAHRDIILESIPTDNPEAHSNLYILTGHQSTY
# Sequence of DMPK (human) (Q09013 whole entry, looked up): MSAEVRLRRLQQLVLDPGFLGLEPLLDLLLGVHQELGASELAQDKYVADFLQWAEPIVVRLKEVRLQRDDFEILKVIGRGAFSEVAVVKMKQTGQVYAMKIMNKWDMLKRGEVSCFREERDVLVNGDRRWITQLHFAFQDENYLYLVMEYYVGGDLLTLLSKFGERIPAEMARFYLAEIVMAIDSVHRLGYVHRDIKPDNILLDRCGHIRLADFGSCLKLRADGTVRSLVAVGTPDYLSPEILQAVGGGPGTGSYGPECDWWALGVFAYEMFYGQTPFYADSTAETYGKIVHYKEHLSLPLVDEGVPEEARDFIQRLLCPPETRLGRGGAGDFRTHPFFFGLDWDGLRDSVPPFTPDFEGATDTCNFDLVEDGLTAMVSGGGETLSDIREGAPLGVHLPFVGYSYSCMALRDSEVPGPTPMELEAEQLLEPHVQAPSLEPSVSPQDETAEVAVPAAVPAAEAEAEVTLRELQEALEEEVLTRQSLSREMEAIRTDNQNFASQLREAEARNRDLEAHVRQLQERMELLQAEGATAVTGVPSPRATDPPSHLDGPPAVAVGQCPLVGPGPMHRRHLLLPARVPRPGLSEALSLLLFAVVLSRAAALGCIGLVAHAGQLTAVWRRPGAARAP
# Sequence of NEK3 (human) (P51956 whole entry, looked up): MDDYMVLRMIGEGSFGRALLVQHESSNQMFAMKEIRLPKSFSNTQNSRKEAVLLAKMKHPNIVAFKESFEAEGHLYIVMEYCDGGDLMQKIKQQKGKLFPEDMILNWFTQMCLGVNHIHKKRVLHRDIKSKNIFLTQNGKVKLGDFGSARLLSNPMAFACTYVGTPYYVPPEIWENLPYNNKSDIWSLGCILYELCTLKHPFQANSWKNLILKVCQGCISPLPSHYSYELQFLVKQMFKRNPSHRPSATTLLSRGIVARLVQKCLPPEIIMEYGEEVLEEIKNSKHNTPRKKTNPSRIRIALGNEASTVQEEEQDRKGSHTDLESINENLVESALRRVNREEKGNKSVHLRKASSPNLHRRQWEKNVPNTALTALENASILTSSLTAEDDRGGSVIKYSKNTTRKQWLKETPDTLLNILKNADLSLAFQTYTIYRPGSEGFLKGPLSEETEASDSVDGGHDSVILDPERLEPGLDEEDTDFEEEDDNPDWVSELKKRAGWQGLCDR
# Sequence of NTRK1 (human) (P04629 whole entry, looked up): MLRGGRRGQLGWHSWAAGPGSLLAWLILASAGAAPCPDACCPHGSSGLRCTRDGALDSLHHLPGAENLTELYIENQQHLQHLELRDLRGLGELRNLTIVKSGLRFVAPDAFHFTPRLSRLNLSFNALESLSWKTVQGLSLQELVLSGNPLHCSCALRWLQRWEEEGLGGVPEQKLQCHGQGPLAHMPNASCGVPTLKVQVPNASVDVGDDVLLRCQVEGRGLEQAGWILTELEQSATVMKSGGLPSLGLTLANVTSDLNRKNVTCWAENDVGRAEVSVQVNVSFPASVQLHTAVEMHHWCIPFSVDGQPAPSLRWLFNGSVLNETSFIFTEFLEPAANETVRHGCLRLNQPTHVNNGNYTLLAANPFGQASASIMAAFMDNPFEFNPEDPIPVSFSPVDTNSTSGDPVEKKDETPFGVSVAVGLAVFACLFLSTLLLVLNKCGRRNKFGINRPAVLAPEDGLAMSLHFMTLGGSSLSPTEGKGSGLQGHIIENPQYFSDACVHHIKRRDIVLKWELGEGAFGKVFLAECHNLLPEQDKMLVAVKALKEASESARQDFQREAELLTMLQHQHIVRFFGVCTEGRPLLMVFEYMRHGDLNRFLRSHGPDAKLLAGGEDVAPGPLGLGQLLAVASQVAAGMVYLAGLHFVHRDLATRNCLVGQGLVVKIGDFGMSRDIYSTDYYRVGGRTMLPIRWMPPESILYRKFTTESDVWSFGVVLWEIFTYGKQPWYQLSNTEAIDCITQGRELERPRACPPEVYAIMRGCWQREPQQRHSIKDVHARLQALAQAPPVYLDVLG
# Sequence of EPHA4 (human) (P54764 whole entry, looked up): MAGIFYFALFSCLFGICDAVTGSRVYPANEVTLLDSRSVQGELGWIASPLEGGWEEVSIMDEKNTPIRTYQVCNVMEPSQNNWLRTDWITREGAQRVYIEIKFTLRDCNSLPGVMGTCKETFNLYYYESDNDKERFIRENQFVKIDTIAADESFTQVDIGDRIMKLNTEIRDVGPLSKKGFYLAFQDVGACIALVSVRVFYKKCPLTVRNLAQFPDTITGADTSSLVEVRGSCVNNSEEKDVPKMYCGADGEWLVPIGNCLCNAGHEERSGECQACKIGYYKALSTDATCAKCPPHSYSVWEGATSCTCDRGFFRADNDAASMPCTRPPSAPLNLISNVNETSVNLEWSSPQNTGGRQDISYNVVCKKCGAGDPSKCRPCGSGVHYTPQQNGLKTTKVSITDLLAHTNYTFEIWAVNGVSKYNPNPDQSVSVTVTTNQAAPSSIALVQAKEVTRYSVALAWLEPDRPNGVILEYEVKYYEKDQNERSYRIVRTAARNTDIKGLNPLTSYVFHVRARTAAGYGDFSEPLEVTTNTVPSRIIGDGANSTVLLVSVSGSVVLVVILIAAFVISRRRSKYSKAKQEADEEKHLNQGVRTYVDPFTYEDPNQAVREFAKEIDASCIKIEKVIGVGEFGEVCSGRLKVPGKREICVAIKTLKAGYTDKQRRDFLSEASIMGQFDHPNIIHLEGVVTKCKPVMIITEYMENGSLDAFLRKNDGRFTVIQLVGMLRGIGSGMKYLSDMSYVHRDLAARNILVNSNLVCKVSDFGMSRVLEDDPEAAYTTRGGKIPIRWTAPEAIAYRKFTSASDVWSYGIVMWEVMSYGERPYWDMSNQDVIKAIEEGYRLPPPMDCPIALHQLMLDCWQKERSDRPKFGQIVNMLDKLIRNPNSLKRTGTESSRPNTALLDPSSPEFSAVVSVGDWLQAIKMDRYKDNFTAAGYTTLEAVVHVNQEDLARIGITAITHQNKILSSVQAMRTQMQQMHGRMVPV
SMILES,"kinase still bound, per cent of control [1] [%]","kinase still bound, per cent of control [2] [%]","kinase still bound, per cent of control [3] [%]","kinase still bound, per cent of control [4] [%]","kinase still bound, per cent of control [5] [%]","kinase still bound, per cent of control [6] [%]","kinase still bound, per cent of control [7] [%]","kinase still bound, per cent of control [8] [%]","kinase still bound, per cent of control [9] [%]","kinase still bound, per cent of control [10] [%]","kinase still bound, per cent of control [11] [%]","kinase still bound, per cent of control [12] [%]","kinase still bound, per cent of control [13] [%]","kinase still bound, per cent of control [14] [%]","kinase still bound, per cent of control [15] [%]","kinase still bound, per cent of control [16] [%]","kinase still bound, per cent of control [17] [%]","kinase still bound, per cent of control [18] [%]","kinase still bound, per cent of control [19] [%]","kinase still bound, per cent of control [20] [%]",other results
COc1cc(C(=O)N2CCC(N3CCN(C)CC3)CC2)ccc1Nc1ncc2c(n1)N(C)c1ccccc1C(=O)N2C,95,100,100,74,100,85,100,94,79,84,34,100,69,100,72,97,100,40,100,60,"kinase still bound, per cent of control [21]: 38%; kinase still bound, per cent of control [22]: 100%; kinase still bound, per cent of control [23]: 100%; kinase still bound, per cent of control [24]: 100%; kinase still bound, per cent of control [25]: 72%; kinase still bound, per cent of control [26]: 100%; kinase still bound, per cent of control [27]: 83%; kinase still bound, per cent of control [28]: 100%; kinase still bound, per cent of control [29]: 94%; kinase still bound, per cent of control [30]: 58%; kinase still bound, per cent of control [31]: 99%; kinase still bound, per cent of control [32]: 97%; kinase still bound, per cent of control [33]: 89%; kinase still bound, per cent of control [34]: 100%; kinase still bound, per cent of control [35]: 97%; kinase still bound, per cent of control [36]: 100%; kinase still bound, per cent of control [37]: 16%; kinase still bound, per cent of control [38]: 100%; kinase still bound, per cent of control [39]: 100%; kinase still bound, per cent of control [40]: 99%"
CCN1CCN(C(=O)Cc2ccc(Nc3ncc(F)c(Nc4ccc(C(=O)Nc5ccccc5Cl)cc4)n3)cc2)CC1,100,68,100,39,11,82,78,46,100,7,28,48,19,0.15,7.8,28,50,38,12,100,"kinase still bound, per cent of control [21]: 14%; kinase still bound, per cent of control [22]: 38%; kinase still bound, per cent of control [23]: 60%; kinase still bound, per cent of control [24]: 45%; kinase still bound, per cent of control [25]: 4.9%; kinase still bound, per cent of control [26]: 2.2%; kinase still bound, per cent of control [27]: 100%; kinase still bound, per cent of control [28]: 17%; kinase still bound, per cent of control [29]: 89%; kinase still bound, per cent of control [30]: 16%; kinase still bound, per cent of control [31]: 7.2%; kinase still bound, per cent of control [32]: 55%; kinase still bound, per cent of control [33]: 83%; kinase still bound, per cent of control [34]: 51%; kinase still bound, per cent of control [35]: 20%; kinase still bound, per cent of control [36]: 41%; kinase still bound, per cent of control [37]: 71%; kinase still bound, per cent of control [38]: 78%; kinase still bound, per cent of control [39]: 100%; kinase still bound, per cent of control [40]: 57%"
